This note sets out measurements from publication PMC7926936, “YM155 Inhibits NleB and SseK Arginine Glycosyltransferase Activity” (Pathogens, 2021).

SMILES strings stand for the structures.

For orientation: IC50 means the concentration that gives 50% inhibition. A high value points to weaker potency.

The target of one assay is NleB (Citrobacter rodentium, UniProt A0A482PDI9). Kind of assay: biochemical.
A further assay has as its target SseK1 (Salmonella enterica, UniProt A0A0H3NK84). Kind of assay: biochemical.

Sequence of NleB (A0A482PDI9 whole entry, looked up): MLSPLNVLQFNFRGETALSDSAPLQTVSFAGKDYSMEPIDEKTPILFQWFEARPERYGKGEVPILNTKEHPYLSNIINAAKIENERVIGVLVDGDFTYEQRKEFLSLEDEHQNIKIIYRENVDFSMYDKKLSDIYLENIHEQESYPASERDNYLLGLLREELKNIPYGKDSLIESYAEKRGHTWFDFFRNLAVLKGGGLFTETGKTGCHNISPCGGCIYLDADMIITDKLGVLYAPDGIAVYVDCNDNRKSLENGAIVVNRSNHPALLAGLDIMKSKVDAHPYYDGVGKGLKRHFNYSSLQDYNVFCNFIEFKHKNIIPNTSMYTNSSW
Sequence of SseK1 (A0A0H3NK84 whole entry, looked up): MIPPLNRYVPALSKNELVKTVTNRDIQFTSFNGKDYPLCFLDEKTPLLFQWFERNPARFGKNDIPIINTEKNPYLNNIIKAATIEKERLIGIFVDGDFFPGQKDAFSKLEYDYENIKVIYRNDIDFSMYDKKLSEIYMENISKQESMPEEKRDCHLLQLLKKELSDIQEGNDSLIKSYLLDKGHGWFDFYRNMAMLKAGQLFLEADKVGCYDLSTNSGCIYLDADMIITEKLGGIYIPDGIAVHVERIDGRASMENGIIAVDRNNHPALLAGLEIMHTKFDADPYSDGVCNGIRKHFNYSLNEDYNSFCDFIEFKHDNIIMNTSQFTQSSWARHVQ

In the case of `COCCn1c2c([n+](Cc3cnccn3)c1C)C(=O)c1ccccc1C2=O` [YM155], the IC50 at NleB and against SseK1 was approximately 2 µM each time.
